Experimental data taken from PubChem BioAssay AID489040 (Sanford-Burnham Center for Chemical Genomics, 2010).
The source made the active and inactive calls.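 How the source made its calls: active means mean half-maximal activating concentration from the dose-response fit at or below a set limit; inactive means the rest.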

Each compound was assayed against CHO-XBP1 luciferase reporter, IRE1-XBP1 UPR activation (assay: XBP1 luciferase reporter activation – CHO-XBP1 cells, luminescence, counter-screen for apoptotic UPR arm activators, dose response (AID 489040);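 further: reporter read after six hours of compound exposure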).

Row | SMILES | EC50
1 | O=C1NC(=O)N(Cc2ccccc2)C(=O)/C1=C\C=C\c1ccco1 | > 80 µM (inactive)
2 | CN1C(=O)/C(=C/c2cccn2-c2ccc3ccccc3c2)C(=O)NC1=S | 7.87 µM
3 | C/C(=N\NC(=O)c1ccc(F)cc1)c1ccccn1 | > 80 µM (inactive)
4 | O=C1C=CC(=O)C(C2=C3C(=O)N(CCc4ccccc4)CC(=O)N3CCC2)=C1 | > 80 µM (inactive)
5 | COc1cc(/C=C2\C(=O)ON=C2c2ccc(Cl)cc2)ccc1O | > 80 µM (inactive)
6 | O=C(Nc1nc2ccc(F)cc2s1)c1ccccn1 | > 80 µM (inactive)
7 | COc1ccc(C(=O)Cn2c(C(=O)/C=C/c3ccccc3)nc3ccccc32)cc1 | > 80 µM (inactive)
8 | COC(=O)c1ccc(-n2c(C)cc(C(=O)CCl)c2C)cc1 | 9.06 µM
9 | CN(C)S(=O)(=O)c1cccc(NC(=O)CSc2cccc3cccnc23)c1 | > 80 µM (inactive)
10 | Oc1c(C(c2ccccn2)N2CCC(Cc3ccccc3)CC2)cc(Cl)c2cccnc12 (stereo not given) | > 80 µM (inactive)
11 | CCCN1C/C(=C/c2ccc3c(c2)OCO3)C(=O)/C(=C/c2ccc3c(c2)OCO3)C1 | > 80 µM (inactive)
12 | Cc1ccc(-c2nnc(-c3ccc(NC(=O)c4cccs4)cc3)o2)cc1 | 11.9 µM
13 | CCOC(=O)c1c(C)oc2c1c(C(c1cccnc1)N1CCOCC1)c(O)c1ccccc12 (stereo not given) | > 80 µM (inactive)
14 | CCc1ccc2nc(N(CCCN(C)C)C(=O)c3ccc(S(=O)(=O)N(C)C4CCCCC4)cc3)sc2c1 | > 80 µM (inactive)
15 | Cc1c(C#N)c(NC(=O)CCl)n(Cc2ccc(F)cc2)c1C | > 80 µM (inactive)
16 | Cc1ccc(Cc2cnc(NC(=O)/C(C#N)=C/c3ccc(-c4cccc([N+](=O)[O-])c4)o3)s2)cc1 | 9.32 µM
17 | Cn1nc(C(F)(F)F)c(/C=N/OC(=O)c2ccccc2)c1SCc1ccccc1Cl | 6.11 µM
18 | COc1ccccc1-c1cc(C(F)(F)F)nc(S(=O)(=O)CCCC(=O)NCc2ccc(F)cc2)n1 | > 80 µM (inactive)
19 | COc1ccc(-c2cc(=O)oc3c(C)c(OC(=O)c4cccs4)ccc23)cc1 | > 80 µM (inactive)
20 | COc1cc([N+](=O)[O-])cc(/C=N/NC(=O)c2ccc(NC(=O)c3ccc(C)cc3)cc2)c1O | > 80 µM (inactive)
21 | CCn1c(O)c(C2=c3ccccc3=NC2=O)c2cc(Br)ccc21 | > 80 µM (inactive)
22 | CC(C)C(=O)N1CCN(c2ccc(NC(=O)c3ccc([N+](=O)[O-])o3)cc2)CC1 | > 80 µM (inactive)
23 | O=C(Cn1ncc(Cl)c(Cl)c1=O)c1ccc2c(c1)OCCO2 | > 80 µM (inactive)
24 | O=C(Nc1ccc(N2CCOCC2)cc1)c1ccc([N+](=O)[O-])o1 | > 80 µM (inactive)

Row | SMILES | EC50
25 | O=C(Nc1ccc(Cc2ccncc2)cc1)c1ccc([N+](=O)[O-])o1 | > 80 µM (inactive)
26 | COC(=O)C(=Cc1ccc(OCc2ccc([N+](=O)[O-])cc2)c(OC)c1)C(=O)OC | > 80 µM (inactive)
27 | CSc1nnc(NC(=O)c2nc(S(=O)(=O)Cc3ccccc3F)ncc2Cl)s1 | > 80 µM (inactive)
28 | Cc1cccc(OCCN2CSC(=S)N(C)C2)c1 | > 80 µM (inactive)
29 | O=C(CCN1C(=O)C2C3C=CC(C4CC34)C2C1=O)Oc1cccc2cccnc12 (stereo not given) | > 80 µM (inactive)
30 | Brc1ccc(-c2ccc(/C=N/Nc3nncc(-c4ccccc4)n3)o2)cc1 | inactive
31 | COC(=O)[C@@H]1[C@@H](C#N)C2(c3ccccc3-c3ccccc32)N(c2ccc(Cl)cc2)N1C#N | > 80 µM (inactive)
32 | O=c1nc(Nc2cccc(Cl)c2)oc2cc(Cl)oc(=O)c12 | > 80 µM (inactive)
33 | Oc1ccc(/C=N/Nc2ccc(C(F)(F)F)cn2)cc1O | > 80 µM (inactive)
34 | CCCCOC(=O)/C=C\C(=O)NC(N)=O | > 80 µM (inactive)
35 | COc1ccc(N=c2oc3c(OC)cccc3cc2C(=O)NCc2ccco2)c(OC)c1 | inactive
36 | COc1ccc2cc1Oc1ccc(cc1)CC1c3c(cc(OC)c4c3Oc3cc5c(cc3O4)CCNC5C2)CCN1C (stereo not given) | > 80 µM (inactive)
37 | COc1ccc(-n2nc(C#N)c(Cl)cc2=O)cc1 | > 80 µM (inactive)
38 | O=C1C(CSCc2ccccc2)NC(=S)N1c1ccccc1 (stereo not given) | > 80 µM (inactive)
39 | Oc1ccc(-c2csc(-c3ccccc3)n2)cc1O | > 80 µM (inactive)
40 | Cn1nc([N+](=O)[O-])c(C(C#N)c2ccccn2)c(Cl)c1=O (stereo not given) | > 80 µM (inactive)
41 | CCCCNC1C(CC)C(CCC)C(C#N)(C#N)C1(C#N)C#N (stereo not given) | > 80 µM (inactive)
42 | COc1ccc(-c2cc3ccccc3oc2=O)cc1NC(=S)NC(=O)c1ccc2c(c1)OCCO2 | 4.27 µM
43 | COc1ccc(C(c2c(C)[nH]n(C(N)=S)c2=O)C(C#N)C#N)cc1 (stereo not given) | > 80 µM (inactive)
44 | O=C(Nc1ccc(-c2nc3cc(NC(=O)c4cccs4)ccc3o2)cc1)c1cccs1 | 6.4 µM
45 | CCCCCCCCCCn1c2c(c(=N)c3c1CCC3)CCC2 | 19.8 µM
46 | COc1cccc2sc(Nc3nc(-c4ccccn4)cs3)nc12 | > 80 µM (inactive)
47 | CCOC(=O)c1ccc(N2C(=O)C=CC2=O)cc1 | > 80 µM (inactive)
48 | Cc1ccc(CN2CCN(/N=C/c3ccc(O)c(O)c3)CC2)cc1 | > 80 µM (inactive)

Row | SMILES | EC50
49 | COC(=O)Oc1ccc(/C=C/C(=O)OC(C)C)cc1OC(=O)OC | > 80 µM (inactive)
50 | O=Cc1ccc(O)c2ncccc12 | > 80 µM (inactive)
51 | FC(F)(F)c1nnc2c(Sc3ccc(Cl)cc3)nc3ccccc3n12 | > 80 µM (inactive)
52 | COc1ccc(CCN2CCC(Nc3nc4ccccc4n3Cc3ccc(F)cc3)CC2)cc1 | > 80 µM (inactive)
53 | COc1ccc(C2OC34CCCCC3C(C#N)(C#N)C2(C#N)C(=N)O4)cc1 (stereo not given) | > 80 µM (inactive)
54 | COc1ccccc1-c1cc(C(F)(F)F)nc(S(=O)(=O)CCCC(=O)N2CCCCC2C)n1 (stereo not given) | > 80 µM (inactive)
55 | Cc1cc(C(=O)Cn2ncc(Cl)c(Cl)c2=O)c(C)n1CC(F)(F)F | > 80 µM (inactive)
56 | CCOC(=O)c1cnc(Nc2nc3ccccc3o2)nc1CSC(=S)N1CCCCC1 | 9.07 µM
57 | O=C(C#Cc1ccccc1)c1cccc([N+](=O)[O-])c1 | > 80 µM (inactive)
58 | CS(=O)(=O)c1nc(-c2ccc(Br)cc2)cc(-c2ccccc2)c1C#N | > 80 µM (inactive)
59 | O=C(Nc1nc2c(F)cc(F)cc2s1)c1ccccn1 | > 80 µM (inactive)
60 | Cc1ccc(NC(=O)Cn2ncc(Cl)c(Cl)c2=O)cc1S(=O)(=O)N1CCCCC1 | > 80 µM (inactive)
61 | Cc1ccc(C)c(N=Cc2c(O)c3ccccc3oc2=O)c1 | inactive
62 | CCCCCC(=O)Nc1ccc(C(=O)N/N=C/c2ccc([N+](=O)[O-])cc2)cc1 | > 80 µM (inactive)
63 | COc1ccc(/C=C/C(=O)c2ccc([N+](=O)[O-])o2)cc1 | > 80 µM (inactive)
64 | O=C(NCCc1ccccc1)c1coc(=O)c(Br)c1 | > 80 µM (inactive)
65 | O=C(NC1CCCC1)C(c1ccc(F)cc1)N(Cc1ccc(F)cc1)C(=O)CCl (stereo not given) | > 80 µM (inactive)
66 | Oc1cc(-c2cccnc2)cc2cccnc12 | inactive
67 | O=C(Nc1ccc2oc(-c3ccc4ccccc4c3)nc2c1)c1ccc2c(c1)OCCO2 | inactive
68 | Oc1ccc(-c2cn3ccccc3n2)cc1O | > 80 µM (inactive)
69 | Cc1ccc(-c2nc(SCC(=O)Nc3cc(C)on3)c3c(=O)n(C)c(=O)n(C)c3n2)cc1 | inactive
70 | COc1cccc2sc(Nc3nnc(-c4cccs4)o3)nc12 | > 80 µM (inactive)
